“Also recorded” adds a separate entry of the source.
What was measured:
NCI-H292 cells = test: Clonogenic survival assay, NCI-H292 NSCLC cells; assay type: cell-based, human
Procedure: Treatment conditions for individual experiments are as described in the figure legends and summarized in the Supplemental Experimental Procedures.
1-2×10^5 cells were plated in 60 mm cell culture dishes and grown in their respective media for 48 h before exposed to experimental conditions. […] For AdGPx1 experiments, cells were supplemented with 50 nM sodium selenite following transduction and throughout clonogenic growth. […] After treatment, cells were washed with PBS and clonogenic assay was completed in their respective media. Briefly, floating and attached cells were collected and total cells per plate were counted. An experimentally derived number of cells were plated into each well of a 6-well cell culture plate in their respective media. For HEL92.1.7 suspension cells, cells were seeded in a top layer of 0.4% (w/v) agarose to allow for quantifiable colony formation. […] Normalized survival fractions were calculated by comparing plating efficiencies of each treatment group against the control group within a given experiment.

HBEpCs = test: Intracellular H2O2 with PeroxyOrange-1, HBEpCs; assay type: cell-based, human; settings: ascorbate 15 pmol cell^−1
Procedure: To visualize intracellular H2O2 levels, the selectively sensitive fluorescent probe PeroxyOrange-1 was utilized as previously described with modifications (Dickinson et al., 2010). 1×10^5 cells were plated and grown in their respective media for 48 h. The complete protocol was conducted in the dark with minimal ambient lighting. Cells were washed with PBS and incubated with 10 uM PO-1 in phenol red free RPMI supplemented with HBE growth supplements for 1 h at 37° C. Cells were then washed in PBS and placed back in phenol red free RPMI supplemented with HBE growth supplements. […] At times indicated, cells were placed on ice for the remainder of the protocol, washed, and trypsinized with phenol red free 0.5% trypsin. After 15 min, cells still attached were scraped and all cells were collected in 15 mL conical vials containing PBS+10% FBS to neutralize the trypsin reaction. Cells were spun at 1200 rpm for 5 min at 4° C., resuspended in 300-500 uL PBS and were run on a LSR II Flow Cytometer (BD Biosciences) with λex=561 nm, λem=585/20 nm. The mean fluorescence intensity (MFI) was analyzed (FlowJo™) and corrected for autoflourescence against unlabeled cells. Normalized MFI was calculated by comparing MFI for a given treatment group against control.

Compound: O=C1O[C@H]([C@@H](O)CO)C(O)=C1O [ascorbate, L-ascorbic acid]
- sensitization to carboplatin + IR (clonogenic survival) (NCI-H292 cells; 1 h ascorbate + 5 μM carboplatin + 2 Gy IR vs Carbo+IR alone): significantly increased sensitivity to Carbo+IR; also recorded: selectively sensitized
- clonogenic survival / cell killing (NCI-H292 cells; ascorbate alone, 1 h exposure): more clonogenic cell killing in NSCLC cell lines than chemotherapy plus radiation; also recorded: dose-dependent clonogenic cell killing
- steady-state levels of H2O2 (PeroxyOrange-1) (HBEpCs): unchanged

Source: US10052304B2, “Compositions and methods for cancer therapy” (UNIVERSITY OF IOWA RESEARCH FOUNDATION, priority 2015, dated 2018)
